Assay results published in patent US9670213B2, “Pteridine ketone derivative and applications thereof as EGFR, BLK, and FLT3 inhibitor” (EAST CHINA UNIVERSITY OF SCIENCE AND TECHNOLOGY, priority 2012, dated 2017).

Key:
Format in all cases: biochemical
[1] = target: HER2 (Homo sapiens (Human), UniProt P04626); test: Kinase selectivity analysis (Caliper mobility shift assay); details: for inhibition at 1 µM: read-out: % inhibition (1 μM), HER2, 1 μM; for inhibition at 10 µM: read-out: % inhibition (10 μM), HER2, 10 μM
Protocol: (§1) Kinase selectivity analysis: kinase selectivity experiment was performed by Shanghai ChemPartner using Caliper assay screening platform. All of kinases and other materials were purchased from commercial companies.
(§2) 3. Preparation of assay plate: 5 μL of solution from each well of the 96-well temporary plate was added into a 384-well plate, and the experiment was independently repeated.
(§3) 5. Caliper readings: experimental data were collected on Caliper.
(§4) 6. Curve fitting: 1) conversion data were replicated from Caliper program. 2) the conversion value was converted into inhibition rate, inhibition rate %=(maximum−conversion value)/(maximum−minimum)*100, wherein “maximum” represents DMSO control, and minimum represents the low control.

[2] = target: GSK3b (Homo sapiens (Human), UniProt P49841); test: as above; details: for inhibition at 1 µM: read-out: % inhibition (1 μM), 1 μM; for inhibition at 10 µM: read-out: % inhibition (10 μM), 10 μM
Protocol: as §1, §2, §3, §4

[3] = target: AUR B (Homo sapiens (Human), UniProt Q96GD4); test: as above; details: for inhibition at 1 µM: read-out: % inhibition (1 μM), 1 μM; for inhibition at 10 µM: read-out: % inhibition (10 μM), 10 μM
Protocol: as §1, §2, §3, §4

[4] = target: IGF1R (Homo sapiens (Human), UniProt P08069); test: as above; details: for inhibition at 1 µM: read-out: % inhibition (1 μM), 1 μM; for inhibition at 10 µM: read-out: % inhibition (10 μM), 10 μM
Protocol: as §1, §2, §3, §4

[5] = target: SRC (Homo sapiens (Human), UniProt P12931); test: as above; details: for inhibition at 1 µM: read-out: % inhibition (1 μM), 1 μM; for inhibition at 10 µM: read-out: % inhibition (10 μM), 10 μM
Protocol: as §1, §2, §3, §4

[6] = target: PDGFRb (Homo sapiens (Human), UniProt P09619); test: as above; details: for inhibition at 1 µM: read-out: % inhibition (1 μM), 1 μM; for inhibition at 10 µM: read-out: % inhibition (10 μM), 10 μM
Protocol: as §1, §2, §3, §4

[7] = target: ERK1 (Homo sapiens (Human), UniProt P27361); test: as above; details: for inhibition at 1 µM: read-out: % inhibition (1 μM), ERK1, 1 μM; for inhibition at 10 µM: read-out: % inhibition (10 μM), ERK1, 10 μM
Protocol: as §1, §2, §3, §4

[8] = target: cKit (Homo sapiens (Human), UniProt P10721); test: as above; details: for inhibition at 1 µM: read-out: % inhibition (1 μM), 1 μM; for inhibition at 10 µM: read-out: % inhibition (10 μM), 10 μM
Protocol: as §1, §2, §3, §4

[9] = target: LCK (Homo sapiens (Human), UniProt P06239); test: as above; details: for inhibition at 1 µM: read-out: % inhibition (1 μM), 1 μM; for inhibition at 10 µM: read-out: % inhibition (10 μM), 10 μM
Protocol: as §1, §2, §3, §4

[10] = target: ABL (Homo sapiens (Human), UniProt P00519); test: as above; details: for inhibition at 1 µM: read-out: % inhibition (1 μM), 1 μM; for inhibition at 10 µM: read-out: % inhibition (10 μM), 10 μM
Protocol: as §1, §2, §3, §4

[11] = target: C-MET (Homo sapiens (Human), UniProt P08581); test: as above; details: for inhibition at 1 µM: read-out: % inhibition (1 μM), 1 μM; for inhibition at 10 µM: read-out: % inhibition (10 μM), 10 μM
Protocol: as §1, §2, §3, §4

[12] = target: KDR (Homo sapiens (Human), UniProt P35968); test: as above; details: for inhibition at 1 µM: read-out: % inhibition (1 μM), 1 μM; for inhibition at 10 µM: read-out: % inhibition (10 μM), 10 μM
Protocol: as §1, §2, §3, §4

[13] = target: CDK2 (Homo sapiens (Human), UniProt P24941); test: as above; details: for inhibition at 1 µM: read-out: % inhibition (1 μM), CDK2, 1 μM; for inhibition at 10 µM: read-out: % inhibition (10 μM), CDK2, 10 μM
Protocol: as §1, §2, §3, §4

[14] = target: PIM1 (Homo sapiens (Human), UniProt P11309); test: as above; details: for inhibition at 1 µM: read-out: % inhibition (1 μM), PIM1, 1 μM; for inhibition at 10 µM: read-out: % inhibition (10 μM), PIM1, 10 μM
Protocol: as §1, §2, §3, §4

[15] = target: JAK2 (Homo sapiens (Human), UniProt O60674); test: as above; details: for inhibition at 1 µM: read-out: % inhibition (1 μM), JAK2, 1 μM; for inhibition at 10 µM: read-out: % inhibition (10 μM), JAK2, 10 μM
Protocol: as §1, §2, §3, §4

[16] = target: LYNA (Homo sapiens (Human), UniProt P07948); test: as above; details: for inhibition at 1 µM: read-out: % inhibition (1 μM), 1 μM; for inhibition at 10 µM: read-out: % inhibition (10 μM), 10 μM
Protocol: as §1, §2, §3, §4

[17] = target: IKKB (Homo sapiens (Human), UniProt O14920); test: as above; details: for inhibition at 1 µM: read-out: % inhibition (1 μM), 1 μM; for inhibition at 10 µM: read-out: % inhibition (10 μM), 10 μM
Protocol: as §1, §2, §3, §4

[18] = target: BLK (Homo sapiens (Human), UniProt P51451); test: as above; details: for inhibition at 1 µM: read-out: % inhibition (1 μM), 1 μM; for inhibition at 10 µM: read-out: % inhibition (10 μM), 10 μM
Protocol: as §1, §2, §3, §4

[19] = target: HER4 (Homo sapiens (Human), UniProt Q15303); test: as above; details: for inhibition at 1 µM: read-out: % inhibition (1 μM), HER4, 1 μM; for inhibition at 10 µM: read-out: % inhibition (10 μM), HER4, 10 μM
Protocol: as §1, §2, §3, §4

[20] = target: P38a (Homo sapiens (Human), UniProt Q16539); test: as above; details: for inhibition at 1 µM: read-out: % inhibition (1 μM), 1 μM; for inhibition at 10 µM: read-out: % inhibition (10 μM), 10 μM
Protocol: as §1, §2, §3, §4

[21] = target: FGFR3 (Homo sapiens (Human), UniProt P22607); test: as above; details: for inhibition at 1 µM: read-out: % inhibition (1 μM), FGFR3, 1 μM; for inhibition at 10 µM: read-out: % inhibition (10 μM), FGFR3, 10 μM
Protocol: as §1, §2, §3, §4

[22] = target: PDGFRa (Homo sapiens (Human), UniProt P16234); test: as above; details: for inhibition at 1 µM: read-out: % inhibition (1 μM), 1 μM; for inhibition at 10 µM: read-out: % inhibition (10 μM), 10 μM
Protocol: as §1, §2, §3, §4

[23] = target: FLT1 (Homo sapiens (Human), UniProt P17948); test: as above; details: for inhibition at 1 µM: read-out: % inhibition (1 μM), FLT1, 1 μM; for inhibition at 10 µM: read-out: % inhibition (10 μM), FLT1, 10 μM
Protocol: as §1, §2, §3, §4

[24] = target: FGFR1 (Homo sapiens (Human), UniProt P11362); test: as above; details: for inhibition at 1 µM: read-out: % inhibition (1 μM), FGFR1, 1 μM; for inhibition at 10 µM: read-out: % inhibition (10 μM), FGFR1, 10 μM
Protocol: as §1, §2, §3, §4

[25] = target: PKACa (Homo sapiens (Human), UniProt P17612); test: as above; details: for inhibition at 1 µM: read-out: % inhibition (1 μM), 1 μM; for inhibition at 10 µM: read-out: % inhibition (10 μM), 10 μM
Protocol: as §1, §2, §3, §4

[26] = target: FLT3 (Homo sapiens (Human), UniProt P36888); test: as above; details: for inhibition at 1 µM: read-out: % inhibition (1 μM), FLT3, 1 μM; for inhibition at 10 µM: read-out: % inhibition (10 μM), FLT3, 10 μM
Protocol: as §1, §2, §3, §4

[27] = target: EGFR-L858R (Homo sapiens (Human), UniProt P00533, L858R); test: In vitro EGFR kinase activity assay (Z'-Lyte); details: read-out: Inhibitory activity on EGFR kinase (IC50, nM) L858R;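 also: Cell-free kinase reaction with peptide substrate and ATP, 1.5 h at room temperature, then development step cleaving non-phosphorylated peptide, 10-point dilution series 0.051–1000 nM, phosphopeptide as 100% phosphorylation control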
[28] = target: wild-type EGFR (Homo sapiens (Human), UniProt P00533); test: In vitro EGFR kinase activity assay (Z'-Lyte); details: EGFR WT; read-out: Inhibitory activity on EGFR kinase (IC50, nM) WT;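 also: Ten-point dose series from 5.1×10^−11 to 1.0×10^−6 mol/L, kinase reaction 1.5 h at room temperature, then 1 h development cleaving unphosphorylated peptide, phosphopeptide as 100% phosphorylation control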

FGFR1, sequence (P11362 22-822, species assumed): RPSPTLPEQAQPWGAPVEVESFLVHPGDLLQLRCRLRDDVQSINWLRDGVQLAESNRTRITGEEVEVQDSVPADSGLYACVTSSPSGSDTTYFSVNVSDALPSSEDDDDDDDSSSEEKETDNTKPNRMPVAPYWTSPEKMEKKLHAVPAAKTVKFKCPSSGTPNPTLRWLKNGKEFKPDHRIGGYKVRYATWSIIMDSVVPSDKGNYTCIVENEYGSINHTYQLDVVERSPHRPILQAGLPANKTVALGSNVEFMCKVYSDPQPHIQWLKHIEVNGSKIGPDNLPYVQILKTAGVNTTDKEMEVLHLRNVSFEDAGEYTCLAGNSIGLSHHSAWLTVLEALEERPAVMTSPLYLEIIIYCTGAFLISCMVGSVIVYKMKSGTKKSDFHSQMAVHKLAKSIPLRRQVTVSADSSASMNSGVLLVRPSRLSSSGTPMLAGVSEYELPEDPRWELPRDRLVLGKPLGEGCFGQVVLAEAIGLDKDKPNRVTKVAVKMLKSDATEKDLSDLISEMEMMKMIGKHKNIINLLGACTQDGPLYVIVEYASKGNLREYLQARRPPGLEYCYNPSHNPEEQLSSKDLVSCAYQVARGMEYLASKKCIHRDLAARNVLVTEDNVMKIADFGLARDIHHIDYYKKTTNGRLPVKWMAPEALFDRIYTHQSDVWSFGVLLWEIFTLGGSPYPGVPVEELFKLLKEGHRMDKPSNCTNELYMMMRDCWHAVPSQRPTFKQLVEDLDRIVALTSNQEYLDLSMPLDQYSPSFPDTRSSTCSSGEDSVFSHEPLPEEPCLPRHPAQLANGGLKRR
ERK1, sequence (P27361 whole entry, species assumed): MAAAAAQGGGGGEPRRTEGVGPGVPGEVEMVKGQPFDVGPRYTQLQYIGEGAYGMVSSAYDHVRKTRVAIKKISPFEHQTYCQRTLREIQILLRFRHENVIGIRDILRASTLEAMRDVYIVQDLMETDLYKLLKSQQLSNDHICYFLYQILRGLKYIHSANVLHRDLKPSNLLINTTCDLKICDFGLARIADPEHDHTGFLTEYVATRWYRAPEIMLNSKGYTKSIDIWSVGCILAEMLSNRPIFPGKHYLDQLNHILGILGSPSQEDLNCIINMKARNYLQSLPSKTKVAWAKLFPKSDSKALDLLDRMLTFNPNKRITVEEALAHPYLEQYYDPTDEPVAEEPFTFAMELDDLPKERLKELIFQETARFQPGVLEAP
PDGFRa, sequence (P16234 24-1089, species assumed): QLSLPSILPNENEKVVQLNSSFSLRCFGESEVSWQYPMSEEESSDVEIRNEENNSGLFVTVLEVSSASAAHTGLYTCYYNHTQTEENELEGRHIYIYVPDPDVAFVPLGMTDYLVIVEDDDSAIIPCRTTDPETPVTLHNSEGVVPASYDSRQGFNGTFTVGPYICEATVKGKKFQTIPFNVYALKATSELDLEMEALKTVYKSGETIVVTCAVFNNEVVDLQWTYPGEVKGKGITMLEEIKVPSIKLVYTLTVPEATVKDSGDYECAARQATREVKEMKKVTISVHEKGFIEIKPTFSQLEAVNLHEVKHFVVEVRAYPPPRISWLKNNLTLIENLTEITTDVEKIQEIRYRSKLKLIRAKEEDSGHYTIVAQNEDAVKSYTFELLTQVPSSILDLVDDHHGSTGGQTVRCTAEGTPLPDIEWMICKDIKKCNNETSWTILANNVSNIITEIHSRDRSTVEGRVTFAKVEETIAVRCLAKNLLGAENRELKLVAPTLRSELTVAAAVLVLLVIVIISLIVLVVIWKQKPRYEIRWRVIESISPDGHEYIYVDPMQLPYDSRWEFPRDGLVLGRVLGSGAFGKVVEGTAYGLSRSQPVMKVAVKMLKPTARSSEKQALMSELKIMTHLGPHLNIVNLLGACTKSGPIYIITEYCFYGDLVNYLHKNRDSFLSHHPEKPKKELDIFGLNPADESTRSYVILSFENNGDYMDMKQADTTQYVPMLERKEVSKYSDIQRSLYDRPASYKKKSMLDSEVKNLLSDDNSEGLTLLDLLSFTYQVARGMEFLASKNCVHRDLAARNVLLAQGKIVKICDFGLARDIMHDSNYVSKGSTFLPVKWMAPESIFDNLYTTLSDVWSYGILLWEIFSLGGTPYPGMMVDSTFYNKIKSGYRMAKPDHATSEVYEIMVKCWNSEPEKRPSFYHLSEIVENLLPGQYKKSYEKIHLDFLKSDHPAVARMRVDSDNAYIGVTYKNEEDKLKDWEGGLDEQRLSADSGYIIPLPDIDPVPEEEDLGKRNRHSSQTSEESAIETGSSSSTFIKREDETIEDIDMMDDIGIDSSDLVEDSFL
P38a, sequence (Q16539 whole entry): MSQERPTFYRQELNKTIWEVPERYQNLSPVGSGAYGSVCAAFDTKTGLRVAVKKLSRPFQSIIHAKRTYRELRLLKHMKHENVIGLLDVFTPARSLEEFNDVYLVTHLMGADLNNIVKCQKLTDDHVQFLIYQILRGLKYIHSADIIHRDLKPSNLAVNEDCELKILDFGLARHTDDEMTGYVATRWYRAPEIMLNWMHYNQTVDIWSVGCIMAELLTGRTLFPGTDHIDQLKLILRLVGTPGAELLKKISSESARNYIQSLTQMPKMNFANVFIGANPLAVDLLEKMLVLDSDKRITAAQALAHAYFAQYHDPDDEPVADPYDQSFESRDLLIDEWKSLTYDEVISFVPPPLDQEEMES
FLT3, sequence (P36888 27-993): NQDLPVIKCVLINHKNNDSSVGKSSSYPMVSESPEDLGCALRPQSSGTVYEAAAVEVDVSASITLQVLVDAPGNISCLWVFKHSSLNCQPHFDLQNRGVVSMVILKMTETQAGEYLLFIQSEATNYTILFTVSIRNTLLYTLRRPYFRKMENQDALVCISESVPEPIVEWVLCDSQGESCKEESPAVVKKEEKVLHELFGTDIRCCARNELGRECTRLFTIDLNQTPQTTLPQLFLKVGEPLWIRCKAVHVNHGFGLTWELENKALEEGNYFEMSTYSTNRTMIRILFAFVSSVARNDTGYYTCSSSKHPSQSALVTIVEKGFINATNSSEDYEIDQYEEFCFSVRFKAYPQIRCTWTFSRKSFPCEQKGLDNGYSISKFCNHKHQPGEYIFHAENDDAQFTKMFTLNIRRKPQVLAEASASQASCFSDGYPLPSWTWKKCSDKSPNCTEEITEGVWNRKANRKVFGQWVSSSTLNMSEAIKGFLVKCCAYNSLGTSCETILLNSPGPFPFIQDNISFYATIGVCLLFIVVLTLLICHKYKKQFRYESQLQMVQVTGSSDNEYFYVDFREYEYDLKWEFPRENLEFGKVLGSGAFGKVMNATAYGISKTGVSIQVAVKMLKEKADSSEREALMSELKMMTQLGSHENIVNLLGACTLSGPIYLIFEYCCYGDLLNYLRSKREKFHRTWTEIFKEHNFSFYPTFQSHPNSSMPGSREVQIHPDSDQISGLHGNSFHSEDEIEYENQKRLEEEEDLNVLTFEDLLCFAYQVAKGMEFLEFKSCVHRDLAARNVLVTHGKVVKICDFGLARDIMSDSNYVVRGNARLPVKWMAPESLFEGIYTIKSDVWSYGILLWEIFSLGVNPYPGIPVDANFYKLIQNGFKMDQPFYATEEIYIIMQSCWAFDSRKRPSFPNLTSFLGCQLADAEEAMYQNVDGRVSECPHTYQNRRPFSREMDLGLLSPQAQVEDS
SRC, sequence (P12931 whole entry, looked up, species assumed): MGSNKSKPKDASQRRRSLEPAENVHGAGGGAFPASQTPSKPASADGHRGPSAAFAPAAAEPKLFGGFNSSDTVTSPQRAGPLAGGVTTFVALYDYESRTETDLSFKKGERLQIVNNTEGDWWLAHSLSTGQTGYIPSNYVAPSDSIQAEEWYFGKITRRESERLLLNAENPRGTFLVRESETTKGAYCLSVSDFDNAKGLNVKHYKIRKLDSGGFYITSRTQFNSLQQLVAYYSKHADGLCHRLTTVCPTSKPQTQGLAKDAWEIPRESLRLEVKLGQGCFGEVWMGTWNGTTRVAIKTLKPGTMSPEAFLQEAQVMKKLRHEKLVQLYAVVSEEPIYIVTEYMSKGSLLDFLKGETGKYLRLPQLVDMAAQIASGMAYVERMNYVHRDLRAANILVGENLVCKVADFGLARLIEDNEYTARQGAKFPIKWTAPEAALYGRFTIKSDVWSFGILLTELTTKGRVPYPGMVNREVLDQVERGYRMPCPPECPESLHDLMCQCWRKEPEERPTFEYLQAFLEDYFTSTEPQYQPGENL
AUR B, sequence (Q96GD4 whole entry): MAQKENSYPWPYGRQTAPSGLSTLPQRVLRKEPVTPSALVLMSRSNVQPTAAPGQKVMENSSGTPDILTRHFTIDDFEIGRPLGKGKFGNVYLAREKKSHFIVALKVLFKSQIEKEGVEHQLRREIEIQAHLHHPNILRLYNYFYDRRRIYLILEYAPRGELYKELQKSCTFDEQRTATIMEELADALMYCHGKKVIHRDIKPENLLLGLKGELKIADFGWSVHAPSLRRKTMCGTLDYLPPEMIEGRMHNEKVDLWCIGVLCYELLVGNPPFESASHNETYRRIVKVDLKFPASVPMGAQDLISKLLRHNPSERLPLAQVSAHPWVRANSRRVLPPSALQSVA
LYNA, sequence (P07948 whole entry, species assumed): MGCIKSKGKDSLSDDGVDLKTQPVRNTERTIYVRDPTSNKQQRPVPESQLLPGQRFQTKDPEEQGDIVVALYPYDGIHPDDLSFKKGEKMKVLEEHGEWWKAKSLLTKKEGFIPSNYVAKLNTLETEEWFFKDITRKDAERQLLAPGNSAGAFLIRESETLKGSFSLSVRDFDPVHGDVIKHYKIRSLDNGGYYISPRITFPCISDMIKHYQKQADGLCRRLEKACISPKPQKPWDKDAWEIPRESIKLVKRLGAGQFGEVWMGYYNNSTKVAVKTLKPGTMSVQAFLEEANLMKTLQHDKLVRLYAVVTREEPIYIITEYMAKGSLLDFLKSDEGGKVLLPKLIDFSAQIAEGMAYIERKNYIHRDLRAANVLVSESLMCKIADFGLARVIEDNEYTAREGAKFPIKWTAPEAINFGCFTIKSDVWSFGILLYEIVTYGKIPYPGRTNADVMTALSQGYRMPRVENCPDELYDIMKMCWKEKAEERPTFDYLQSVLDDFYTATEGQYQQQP

C=CC(=O)Nc1cccc(-n2c(=O)cnc3cnc(Nc4ccc(N5CCN(C)CC5)cc4)nc32)c1 [Compound 020, N-(3-(2-(4-(4-methyl-1-piperazinyl)-phenylamino)-7-oxo-8(7H)-pteridin-yl)phenyl) acrylamide]
inhibition at 1 µM [1]: 97%
inhibition at 10 µM [1]: 98%
inhibition at 1 µM [2]: 16%
inhibition at 10 µM [2]: 34%
inhibition at 1 µM [3]: 52%
inhibition at 10 µM [3]: 87%
inhibition at 1 µM [4]: 21%
inhibition at 10 µM [4]: 36%
inhibition at 1 µM [5]: 27%
inhibition at 10 µM [5]: 72%
inhibition at 1 µM [6]: 42%
inhibition at 10 µM [6]: 84%
inhibition at 1 µM [7]: 1.3%
inhibition at 10 µM [7]: 19%
inhibition at 1 µM [8]: -12%
inhibition at 10 µM [8]: -3.2%
inhibition at 1 µM [9]: 18%
inhibition at 10 µM [9]: 73%
inhibition at 1 µM [10]: 11%
inhibition at 10 µM [10]: 39%
inhibition at 1 µM [11]: 27%
inhibition at 10 µM [11]: 53%
inhibition at 1 µM [12]: 25%
inhibition at 10 µM [12]: 73%
inhibition at 1 µM [13]: 18%
inhibition at 10 µM [13]: 49%
inhibition at 1 µM [14]: 8.2%
inhibition at 10 µM [14]: 54%
inhibition at 1 µM [15]: 22%
inhibition at 10 µM [15]: 36%
inhibition at 1 µM [16]: 11%
inhibition at 10 µM [16]: 40%
inhibition at 1 µM [17]: 9.4%
inhibition at 10 µM [17]: 2%
inhibition at 1 µM [18]: 99%
inhibition at 10 µM [18]: 100%
inhibition at 1 µM [19]: 60%
inhibition at 10 µM [19]: 72%
inhibition at 1 µM [20]: 2.8%
inhibition at 10 µM [20]: 21%
inhibition at 1 µM [21]: 14%
inhibition at 10 µM [21]: 33%
inhibition at 1 µM [22]: 4.9%
inhibition at 10 µM [22]: 35%
inhibition at 1 µM [23]: 17%
inhibition at 10 µM [23]: 58%
inhibition at 1 µM [24]: 19%
inhibition at 10 µM [24]: 63%
inhibition at 1 µM [25]: 15%
inhibition at 10 µM [25]: 4.7%
inhibition at 1 µM [26]: 82%
inhibition at 10 µM [26]: 99%
IC50 [27]: 1.2 nM
IC50 [28]: 1.47 nM

C=CC(=O)Nc1cccc(-n2c(=O)cnc3cnc(Nc4ccc(N5CCN(C)CC5)cc4OC)nc32)c1 [Compound 032, N-(3-(2-(2-methoxy-4-(4-methyl-1-piperazinyl)-phenylamino)-7-oxo-8(7H)-pteridin-yl)phenyl)acrylamide]
inhibition at 1 µM [1]: 89%
inhibition at 10 µM [1]: 100%
inhibition at 1 µM [2]: 12%
inhibition at 10 µM [2]: 16%
inhibition at 1 µM [3]: 32%
inhibition at 10 µM [3]: 69%
inhibition at 1 µM [4]: 15%
inhibition at 10 µM [4]: 37%
inhibition at 1 µM [5]: 6.6%
inhibition at 10 µM [5]: 33%
inhibition at 1 µM [6]: 14%
inhibition at 10 µM [6]: 61%
inhibition at 1 µM [7]: 11%
inhibition at 10 µM [7]: -4%
inhibition at 1 µM [8]: -9.3%
inhibition at 10 µM [8]: -4.8%
inhibition at 1 µM [9]: 14%
inhibition at 10 µM [9]: 54%
inhibition at 1 µM [10]: 5.8%
inhibition at 10 µM [10]: 13%
inhibition at 1 µM [11]: 13%
inhibition at 10 µM [11]: 28%
inhibition at 1 µM [12]: 3.8%
inhibition at 10 µM [12]: 29%
inhibition at 1 µM [13]: 25%
inhibition at 10 µM [13]: 48%
inhibition at 1 µM [14]: 2.1%
inhibition at 10 µM [14]: 8.9%
inhibition at 1 µM [15]: 9.9%
inhibition at 10 µM [15]: 22%
inhibition at 1 µM [16]: 6.1%
inhibition at 10 µM [16]: 20%
inhibition at 1 µM [17]: -3.3%
inhibition at 10 µM [17]: -4.3%
inhibition at 1 µM [18]: 85%
inhibition at 10 µM [18]: 99%
inhibition at 1 µM [19]: 60%
inhibition at 10 µM [19]: 77%
inhibition at 1 µM [20]: -5.6%
inhibition at 10 µM [20]: 1.2%
inhibition at 1 µM [21]: 11%
inhibition at 10 µM [21]: 13%
inhibition at 1 µM [22]: 1.2%
inhibition at 10 µM [22]: 18%
inhibition at 1 µM [23]: 9.4%
inhibition at 10 µM [23]: 11%
inhibition at 1 µM [24]: 7.9%
inhibition at 10 µM [24]: 42%
inhibition at 1 µM [25]: 6.9%
inhibition at 10 µM [25]: 4%
inhibition at 1 µM [26]: 60%
inhibition at 10 µM [26]: 91%
IC50 [27]: 2.36 nM
IC50 [28]: 3.67 nM
